From the NIST ThermoML archive (doi:10.1016/j.fluid.2008.09.004)

Experiments:
[1] = 101.33 kPa, Liquid; for mass density: Vibrating tube method; for speed of sound: Sing-around technique in a fixed-path interferometer
[2] = molar heat capacity at constant pressure; settings: 101.33 kPa, Liquid, Small sample (50 mg) DSC
[3] = excess molar enthalpy (molar enthalpy of mixing); xn = mol fraction of the nth substance listed; settings: 303.15 K, 101 kPa, Liquid, Calvet calorimetry

CCCCn1cc[n+](C)c1.COS(=O)(=O)[O-] [1-butyl-3-methylimidazolium methyl sulfate]
Settings	mass density, [1] [kg/m3]	molar heat capacity at constant pressure, [2] [J/K/mol]
293.15 K	1210.7	413.7
298.15 K	1207.4	416.2
303.15 K	1204.1	418.5
308.15 K	1200.8	420.9
313.15 K	1197.5	423.3
318.15 K	1194.2	425.6

CCCCn1cc[n+](C)c1.F[B-](F)(F)F [1-butyl-3-methylimidazolium tetrafluoroborate]
Settings	mass density, [1] [kg/m3]	molar heat capacity at constant pressure, [2] [J/K/mol]
293.15 K	1207.6	359.8
298.15 K	1204.1	363.1
303.15 K	1200.5	366.1
308.15 K	1197	368.7
313.15 K	1193.4	371
318.15 K	1189.9	372.9

CCCCn1cc[n+](C)c1.O=S(=O)([O-])C(F)(F)F [1-butyl-3-methylimidazolium trifluoromethanesulfonate]
Settings	mass density, [1] [kg/m3]	molar heat capacity at constant pressure, [2] [J/K/mol]	speed of sound, [1] [m/s]
293.15 K	1301.6	421.6	1403.4
298.15 K	1297.6	424.1	1392.1
303.15 K	1293.7	426.7	1380.9
308.15 K	1289.7	429.5	1369.8
313.15 K	1285.8	432.4	1358.8
318.15 K	1281.9	435.5	1348.1

CCCC[n+]1cccc(C)c1.F[B-](F)(F)F [1-butyl-3-methylpyridinium tetrafluoroborate]
[1]
Settings	speed of sound [m/s]
293.15 K	1599.8
298.15 K	1587
303.15 K	1574.8
308.15 K	1562.6
313.15 K	1550.7
318.15 K	1538.9

CCCC[n+]1cccc(C)c1.F[B-](F)(F)F [1-butyl-3-methylpyridinium tetrafluoroborate] + CCO
[3]
Settings	excess molar enthalpy [kcal/mol]
x1 = 0.0306	0.132
x1 = 0.1031	0.324
x1 = 0.1976	0.483
x1 = 0.3036	0.588
x1 = 0.3966	0.621
x1 = 0.5083	0.596
x1 = 0.6001	0.535
x1 = 0.692	0.45
x1 = 0.8061	0.301
x1 = 0.8847	0.187

CCOS(=O)(=O)[O-].CCn1cc[n+](C)c1 [1-ethyl-3-methylimidazolium ethyl sulfate]
Settings	mass density, [1] [kg/m3]	molar heat capacity at constant pressure, [2] [J/K/mol]
293.15 K	1240.6	392.2
298.15 K	1237.2	394.4
303.15 K	1233.8	396.8
308.15 K	1230.4	399.3
313.15 K	1227	402
318.15 K	1223.7	404.9

CCn1cc[n+](C)c1.O=S(=O)([O-])C(F)(F)F [1-ethyl-3-methylimidazolium trifluoromethanesulfonate]
Settings	mass density, [1] [kg/m3]	molar heat capacity at constant pressure, [2] [J/K/mol]
293.15 K	1389.5	361.1
298.15 K	1385.3	363.2
303.15 K	1381.1	365.3
308.15 K	1376.9	367.4
313.15 K	1372.7	369.6
318.15 K	1368.6	371.8

CCCCCCn1cc[n+](C)c1.F[B-](F)(F)F [1-hexyl-3-methylimidazolium tetrafluoroborate]
Settings	mass density, [1] [kg/m3]	molar heat capacity at constant pressure, [2] [J/K/mol]	speed of sound, [1] [m/s]
293.15 K	1148.8	425.1	1532.7
298.15 K	1145.3	427.8	1519.5
303.15 K	1141.8	430.4	1506.9
308.15 K	1138.4	433	1494.5
313.15 K	1135	435.5	1482.3
318.15 K	1131.6	438.1	1470.5

CCO [ethanol]
Settings	mass density, [1] [kg/m3]	molar heat capacity at constant pressure, [2] [J/K/mol]	speed of sound, [1] [m/s]
293.15 K	789.6	111.3	1159.5
298.15 K	785.3	113.3	1142.5
303.15 K	781	115.3	1125.5
308.15 K	776.7	117.5	1108.6
313.15 K	772.3	119.7	1091.8
318.15 K	767.8	122.1	1075.1
